Results from paper PMC9046087, “Structural basis of tethered agonism of the adhesion GPCRs ADGRD1 and ADGRF1” (Nature, 2022).
Ends that are not written are not given here.

Key:
Experiment in all cases: BRET assay using TRUPATH biosensors, Gi activation of ADGRF1
Format in all cases: cell-based
ADGRF1 [1] = target: T1, ADGRF1 (Homo sapiens, UniProt Q5T601, L752A); details: ADGRF1 L752^5.44bA
T1 construct: Flag (N); expressed in transfected cells; host or cells: HEK293F
Outline: (§1)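 G protein activation by synthetic stalk peptides, read as GFP2-to-RLuc8 emission ratio from the fifth of five successive readings. Cells: HEK293F expressing receptor (WT or mutant) with GαsS-RLuc8 or Gαi1-RLuc8 plus Gβ3 and Gγ9-GFP2 (2:1:1:1). Pre-incubated 30 min at 37 °C; substrate coelenterazine 400a.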

ADGRF1 [2] = target: T2, ADGRF1 (Homo sapiens, UniProt Q5T601, F747A); details: ADGRF1 F747^5.36bA, n = 3
T2 construct: Flag (N); expressed in transfected cells; host or cells: HEK293F
T2 sequence (Q5T601 20-910 F747A): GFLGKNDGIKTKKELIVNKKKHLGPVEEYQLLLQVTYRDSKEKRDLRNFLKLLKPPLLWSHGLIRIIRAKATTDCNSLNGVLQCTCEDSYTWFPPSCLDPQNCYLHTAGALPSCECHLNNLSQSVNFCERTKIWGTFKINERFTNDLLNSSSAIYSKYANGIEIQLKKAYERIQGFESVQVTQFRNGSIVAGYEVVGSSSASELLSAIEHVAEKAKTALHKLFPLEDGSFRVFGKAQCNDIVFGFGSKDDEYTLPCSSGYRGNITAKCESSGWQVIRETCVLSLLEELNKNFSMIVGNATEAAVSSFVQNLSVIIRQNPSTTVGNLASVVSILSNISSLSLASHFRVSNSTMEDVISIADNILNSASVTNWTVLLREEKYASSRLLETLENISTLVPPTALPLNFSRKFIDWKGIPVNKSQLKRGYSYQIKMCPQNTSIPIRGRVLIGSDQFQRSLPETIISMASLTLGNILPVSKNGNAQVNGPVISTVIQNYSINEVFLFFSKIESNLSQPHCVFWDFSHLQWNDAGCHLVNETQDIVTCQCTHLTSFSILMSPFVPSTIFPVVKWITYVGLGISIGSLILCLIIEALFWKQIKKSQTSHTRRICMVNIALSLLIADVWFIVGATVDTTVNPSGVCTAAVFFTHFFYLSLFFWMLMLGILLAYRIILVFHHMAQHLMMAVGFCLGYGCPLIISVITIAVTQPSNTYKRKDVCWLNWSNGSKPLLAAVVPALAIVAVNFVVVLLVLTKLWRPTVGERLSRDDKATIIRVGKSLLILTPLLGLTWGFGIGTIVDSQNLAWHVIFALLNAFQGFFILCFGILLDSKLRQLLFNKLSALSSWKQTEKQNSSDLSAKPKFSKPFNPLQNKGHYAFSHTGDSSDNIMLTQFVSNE
Outline: as §1

ADGRF1 [3] = target: T3, ADGRF1 (Homo sapiens, UniProt Q5T601, F690A); details: ADGRF1 F690^ICL2A
T3 construct: Flag (N); expressed in transfected cells; host or cells: HEK293F
T3 sequence (Q5T601 20-910 F690A): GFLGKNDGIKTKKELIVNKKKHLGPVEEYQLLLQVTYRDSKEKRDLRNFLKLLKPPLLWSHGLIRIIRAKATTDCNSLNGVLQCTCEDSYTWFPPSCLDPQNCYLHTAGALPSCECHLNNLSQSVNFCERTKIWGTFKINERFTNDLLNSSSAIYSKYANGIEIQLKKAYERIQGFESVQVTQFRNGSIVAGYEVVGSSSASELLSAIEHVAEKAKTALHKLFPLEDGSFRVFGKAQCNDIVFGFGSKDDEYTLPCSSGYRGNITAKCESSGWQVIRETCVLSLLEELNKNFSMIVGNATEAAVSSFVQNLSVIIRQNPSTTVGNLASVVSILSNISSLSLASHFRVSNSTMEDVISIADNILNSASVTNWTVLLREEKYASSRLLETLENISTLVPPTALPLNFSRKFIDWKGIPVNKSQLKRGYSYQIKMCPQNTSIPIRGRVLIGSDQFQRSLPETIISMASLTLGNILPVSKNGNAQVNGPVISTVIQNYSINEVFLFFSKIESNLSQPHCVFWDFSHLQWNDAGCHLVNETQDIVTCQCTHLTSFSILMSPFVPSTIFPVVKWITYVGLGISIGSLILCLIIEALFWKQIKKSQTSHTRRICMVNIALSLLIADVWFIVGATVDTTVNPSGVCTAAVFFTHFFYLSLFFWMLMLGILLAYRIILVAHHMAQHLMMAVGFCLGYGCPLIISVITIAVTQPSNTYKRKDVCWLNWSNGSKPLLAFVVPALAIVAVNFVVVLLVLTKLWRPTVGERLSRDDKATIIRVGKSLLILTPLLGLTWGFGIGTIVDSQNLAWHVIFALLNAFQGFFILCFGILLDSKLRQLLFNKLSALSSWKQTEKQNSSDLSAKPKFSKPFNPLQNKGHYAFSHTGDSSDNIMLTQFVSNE
Outline: as §1

ADGRF1 [4] = target: T4, ADGRF1 (Homo sapiens, UniProt Q5T601, L681A); details: ADGRF1 L681^3.53bA
T4 construct: Flag (N); expressed in transfected cells; host or cells: HEK293F
T4 sequence (Q5T601 20-910 L681A): as the sequence (Q5T601 20-910 F747A) above, with L662A, A728F counted along it
Outline: as §1

ADGRF1 [5] = target: T5, ADGRF1 (Homo sapiens, UniProt Q5T601, L678A); details: ADGRF1 L678^3.50bA
T5 construct: Flag (N); expressed in transfected cells; host or cells: HEK293F
T5 sequence (Q5T601 20-910 L678A): as the sequence (Q5T601 20-910 F747A) above, with L659A, A728F counted along it
Outline: as §1

ADGRF1 [6] = target: T6, ADGRF1 (Homo sapiens, UniProt Q5T601, G831A); details: ADGRF1 G831^7.50bA, n = 3
T6 construct: Flag (N); expressed in transfected cells; host or cells: HEK293F
T6 sequence (Q5T601 20-910 G831A): as the sequence (Q5T601 20-910 F747A) above, with A728F, G812A counted along it
Outline: as §1

ADGRF1 [7] = target: T7, ADGRF1 (Homo sapiens, UniProt Q5T601, F672A); details: ADGRF1 F672^3.44bA
T7 construct: Flag (N); expressed in transfected cells; host or cells: HEK293F
T7 sequence (Q5T601 20-910 F672A): as the sequence (Q5T601 20-910 F747A) above, with F653A, A728F counted along it
Outline: as §1

ADGRF1 [8] = target: T8, ADGRF1 (Homo sapiens, UniProt Q5T601, Y684A); details: ADGRF1 Y684^3.56bA
T8 construct: Flag (N); expressed in transfected cells; host or cells: HEK293F
T8 sequence (Q5T601 20-910 Y684A): as the sequence (Q5T601 20-910 F747A) above, with Y665A, A728F counted along it
Outline: as §1

ADGRF1 [9] = target: T9, ADGRF1 (Homo sapiens, UniProt Q5T601, P798A); details: ADGRF1 P798^6.47bA
T9 construct: Flag (N); expressed in transfected cells; host or cells: HEK293F
T9 sequence (Q5T601 20-910 P798A): as the sequence (Q5T601 20-910 F747A) above, with A728F, P779A counted along it
Outline: as §1

ADGRF1 [10] = target: T10, ADGRF1 (Homo sapiens, UniProt Q5T601, G801A); details: ADGRF1 G801^6.50bA
T10 construct: Flag (N); expressed in transfected cells; host or cells: HEK293F
T10 sequence (Q5T601 20-910 G801A): as the sequence (Q5T601 20-910 F747A) above, with A728F, G782A counted along it
Outline: as §1

ADGRF1 [11] = target: T11, ADGRF1 (Homo sapiens, UniProt Q5T601, L682A); details: ADGRF1 L682^3.54bA
T11 construct: Flag (N); expressed in transfected cells; host or cells: HEK293F
T11 sequence (Q5T601 20-910 L682A): as the sequence (Q5T601 20-910 F747A) above, with L663A, A728F counted along it
Outline: as §1

ADGRF1 [12] = target: T12, ADGRF1 (Homo sapiens, UniProt Q5T601, F641A); details: ADGRF1 F641^2.64bA
T12 construct: Flag (N); expressed in transfected cells; host or cells: HEK293F
T12 sequence (Q5T601 20-910 F641A): as the sequence (Q5T601 20-910 F747A) above, with F622A, A728F counted along it
Outline: as §1

[13] = n = 3, read-out: pEC50 (mean ± s.e.m.) (converted)

T1 sequence (Q5T601 20-910 L752A): as the sequence (Q5T601 20-910 F747A) above, with A728F, L733A counted along it

With TSFSILMSPFVP [pF1] the “Emax (mean ± s.e.m.)” value (ADGRF1 [1]; n = 3) was 90 ± 15 % of WT, the EC50 (ADGRF1 [1]; [13]) was 0.513 µM and the EC50 (ADGRF1 [2]) was 1.22 µM. The “Emax (mean ± s.e.m.)” value (ADGRF1 [2]) was 80 ± 13 % of WT, the “Emax (mean ± s.e.m.)” value (ADGRF1 [3]; n = 3) was 94 ± 15 % of WT and the EC50 (ADGRF1 [3]; [13]) was 0.0794 µM. The “Emax (mean ± s.e.m.)” value (ADGRF1 [4]; n = 3) was 59 ± 10 % of WT, the EC50 (ADGRF1 [4]; [13]) was 0.12 µM and the “Emax (mean ± s.e.m.)” value (ADGRF1 [5]; n = 3) was 58 ± 7 % of WT. For the same sequence, the EC50 (ADGRF1 [5]; [13]) was 0.129 µM, the EC50 (ADGRF1 [6]) was 1.03 µM and the “Emax (mean ± s.e.m.)” value (ADGRF1 [6]) was 97 ± 15 % of WT. The “Emax (mean ± s.e.m.)” value (ADGRF1 [7]; n = 3) was 72 ± 12 % of WT, the EC50 (ADGRF1 [7]; [13]) was 0.437 µM and the “Emax (mean ± s.e.m.)” value (ADGRF1 [8]; n = 3) was 115 ± 17 % of WT. For the same sequence, the EC50 (ADGRF1 [8]; [13]) was 0.813 µM, the “Emax (mean ± s.e.m.)” value (ADGRF1 [9]; n = 3) was 94 ± 17 % of WT and the EC50 (ADGRF1 [9]; [13]) was 0.912 µM. For the same sequence, the “Emax (mean ± s.e.m.)” value (ADGRF1 [10]; n = 3) was 127 ± 13 % of WT, the EC50 (ADGRF1 [10]; [13]) was 0.347 µM and the “Emax (mean ± s.e.m.)” value (ADGRF1 [11]; n = 3) was 79 ± 12 % of WT. The EC50 (ADGRF1 [11]; [13]) was 0.269 µM, the “Emax (mean ± s.e.m.)” value (ADGRF1 [12]; n = 3) was 82 ± 15 % of WT and the EC50 (ADGRF1 [12]; [13]) was 0.204 µM.
